Results from patent publication EP1258532A1, “Thermostable D-hydantoinase from Bacillus circulans and the application thereof” (NATIONAL SCIENCE COUNCIL, priority 2001, dated 2002).

Assays:
D-hydantoinase [1] = assay: Effects of metal ions on D-hydantoinase activity; assay type: biochemical, Bacillus circulans; details: ion 500 µM; for Specific activity: 15 min at room temperature, substrate 10 mM D,L-p-HPH in 50 mM Tris-HCl (pH 8.0); for Relative activity: activity percentage based on that without adding ions
Protocol: Various divalent metal ions (as set forth in Table 1 below) were added to the vector pQE-bcidht in E. coli NovaBlue, crude extracts thereof or the purified D-hydantoinase of the present invention at 500 µM concentration. After 15 minutes of incubation at room temperature, 10 mM substrate of D,L-p-HPH (dissolved in 50 mM Tris-HCl (pH 8.0)) was added. The specific activity of the enzyme was then measured.

D-hydantoinase [2] = assay: Effects of H2O2, NaCl and NH4Cl on D-hydantoinase activity; assay type: biochemical, Bacillus circulans; details: in the presence of 0.8 M H2O2; 25°C for 10 min, residual H2O2 removed with catalase; 800000 µM
Protocol: The vector pQE-bcidht in E. coli NovaBlue, crude extracts thereof or the purified D-hydantoinase of the present invention was incubated at 25°C for 10 min. Afterwards, the catalase was added to the solution to remove residual H2O2, and then the enzyme activity was measured. In addition, various concentrations of NaCl and NH4Cl were added to the solution containing D-hydantoinase. The solution was incubated at room temperature for 10 min, and the enzyme activity was measured.

Row | Substance | Specific activity (D-hydantoinase [1]) [unit/mg] | Relative activity (D-hydantoinase [1]; 15 min) [%] | retained enzyme activity (D-hydantoinase [2]) [%] | Relative activity (D-hydantoinase [1]) [%] | inhibition of D-hydantoinase activity (D-hydantoinase [1]; substrate 10 mM D,L-p-HPH) [%]
1 | FeSO2 | 2.52 | 87.5 |  |  | 
2 | H2O2 |  |  | 85 |  | 
3 | MgSO4 | 2.69 |  |  | 94 | 
4 | NiSO4 | 4.00 |  |  | 139 | 
5 | ZnSO4 | 1.44 |  |  | 50 | 50
